# Results published in patent US20250213601A1 (priority 2022, published 2025).
# Values joined by “and” are separate entries in the source; they are usually repeats but may differ in a detail not shown here. Equal entries are not always repeated.
# Key:
# West Nile virus (NY99) = details: cited from earlier work
# Dengue virus (EDEN-4) = details: cited from earlier work
# [1] = system: Influenza VLPs (avian influenza A); details: 10 μM; cited from earlier work
# Caco-2 cell line = assay: Permeability through a monolayer of Caco-2 cells; details: bottom of Transwell well, 3 μM (per pure IVM) in HBSS on top
# [2] = system: Zika virus (Asian/Cook Islands); details: cited from earlier work
# Dengue virus (EDEN-3) = details: cited from earlier work
# [3] = standard tablet form, for 5 days; cited from earlier work
# SARS-CoV-2 = details: in vitro, inhibition of replication; cited from earlier work
# Dengue virus (EDEN-2) = details: cited from earlier work
# [4] = Ivermectin concentration in the blood plasma of cattle after oral administration; type: in vivo; details: oral 600 μg/kg (per pure IVM)
# Experimental: Cattle were divided into 2 groups of 1 animals each. Free Ivermectin (IVM) and compound of FORMULA I were orally administered to starving cattle. Blood samples were withdrawn from the jugular vein at appropriate time intervals after administration (0, 4, 20 h).
# Fluorescence detection was set at an excitation and emission wavelength of 365 and 475 nm, respectively. The mobile phase consisted of acetonitrile, methanol and distilled water (50:45:5, v/v/v), running through the column at a flow rate of 1.5 ml/minute. The chromatographic analysis was operated at 25° C. Sample preparation (100 μl plasma) was done by a single stepprotein precipitation with acetonitrile, followed by derivatization with 100 μl of N-methylimidazole solution in acetonitrile (1:1, v/v) and 150 μl of trifluoroacetic anhydrous solution in acetonitrile (1:2, v/v). Calibration curve over the concentration range of 20-8,000 ng/ml plasma was linear with correlation coefficient better than 0.995.
# All the blood samples were centrifuged at 3000 rpm for 15 min to obtain […]. Cattle plasma samples (100 μL each) were placed in 1.5 mL Eppendorf tubes, and then the samples underwent protein precipitation. The samples were vortexed for 1 min and centrifuged at 13,400 rpm for 10 min 20 μL of the supernatant was injected into the HPLC.
# Syrian hamsters = assay: Oral toxicity of solid dispersion; type: in vivo; details: per pure ivermectin, FORMULA I compound per Example 1 No 2 (apple pectin 1:5)
# Dengue virus (NGC) = details: cited from earlier work
# West Nile virus (MRM61C) = details: cited from earlier work
# Pseudorabies virus = details: estimated; read-out: est. EC50; cited from earlier work
# Adenovirus (HAdV-C5) = details: cited from earlier work
# [5] = system: Hendra (Hendra virus/Australia/Horse); details: estimated; read-out: est. EC50; cited from earlier work
smiles,measurement,setting,value
"CCC(C)C1OC2(CCC1C)CC1CC(CC=C(C)C(OC3CC(OC)C(OC4CC(OC)C(O)C(C)O4)C(C)O3)C(C)C=CC=C3COC4C(O)C(C)=CC(C(=O)O1)C34O)O2 (centres unmarked) [ivermectin, Ivermectin]",EC50,West Nile virus (NY99),4 µM
same,EC50,Dengue virus (EDEN-4),1900 nM
same,Inhibition,[1],10 μM total inhibition
same,Concentrartion of IVM,"Caco-2 cell line; 20 min, FORMULA I compound per Example 1 No 2 (apple pectin 1:5)",0.05 µg/mL
same,Concentrartion of IVM,"Caco-2 cell line; 40 min, FORMULA I compound per Example 1 No 2",0.09 µg/mL
same,Concentrartion of IVM,"Caco-2 cell line; 60 min, FORMULA I compound per Example 1 No 2",0.15 µg/mL
same,Concentrartion of IVM,"Caco-2 cell line; 80 min, FORMULA I compound per Example 1 No 2",0.19 µg/mL
same,Concentrartion of IVM,"Caco-2 cell line; 100 min, FORMULA I compound per Example 1 No 2",0.21 µg/mL
same,Concentrartion of IVM,"Caco-2 cell line; 120 min, FORMULA I compound per Example 1 No 2",0.25 µg/mL
same,EC50,[2],1300 nM and 1600 nM
same,EC50,Dengue virus (EDEN-3),1700 nM
same,lung Cmax,[3],0.4 to 0.9 µM
same,EC50,SARS-CoV-2,2400 nM and 2200 nM and 2800 nM
same,EC90,SARS-CoV-2,5 µM
same,EC50,Dengue virus (EDEN-2),2100 nM and 1700 nM
same,"C1, 0 h (ivermectin concentration in plasma)","[4]; 0 h, FORMULA I compound per Example 1 No 1 (polyvinylpyrrolidone 1:10), IVM = milled free ivermectin",0 ± 0.15 ng/mL
same,"C2, 4 h (ivermectin concentration in plasma)","[4]; 4 h, FORMULA I compound per Example 1 No 1",307.3 ± 46.1 ng/mL
same,"C3, 20 h (ivermectin concentration in plasma)","[4]; 20 h, FORMULA I compound per Example 1 No 1",104.4 ± 15.6 ng/mL
same,Cmax,[4]; FORMULA I compound per Example 1 No 1,350 ± 50 nM
same,LD50,Syrian hamsters,62 mg/kg
same,Inhibition,Dengue virus (NGC); 50 μM,total inhibition
same,EC50,Dengue virus (NGC),400 nM and 600 nM
same,EC50,West Nile virus (MRM61C),1000 nM and 500 nM
same,EC50,Pseudorabies virus,~800 nM
same,EC50,Adenovirus (HAdV-C5),2500 nM
same,EC50,[5],~2000 nM
